In patent US20250163057A1, “DCN-1 MODULATING COMPOUNDS AND METHODS OF USE THEREOF” (Cellarity, Inc., priority 2023, published 2025):

Key:
[1] = tested on: HBG1 mRNA and HbF protein in bone marrow cells; test: Induction of fetal hemoglobin by hydroxyurea and I-73 in human CD34+ cell reconstituted immunodeficient mice, with analysis of synergistic effect; assay type: in vivo, NBSGW mice engrafted with human CD34+ cells
Experimental: The model employed for assessment of induction of fetal hemoglobin by I-73 and hydroxyurea involved the use of human stem cell-reconstituted immunodeficient mice. Specifically, three hundred thousand human CD34-positive cells from G-CSF-mobilized human peripheral blood […] (PBMCs) were injected into the tail veins of NOD.Cg-KitW-41J Tyr+Prkdcscid Il2rgtm1Wjl/ThomJ (NBSGW) mice (JAX Strain No. 026622) on day 0. Twelve weeks later, mice were checked for human cell engraftment by sampling PBMCs from blood taken from the tail vein and staining for expression of murine or human CD45 by flow cytometry. After removing from the study those mice having greater than 10% human cells or less than 1% human cells in their peripheral blood, the remaining mice were randomized into treatment groups based on the human cell percentage. Thirteen weeks post engraftment, treatment was initiated with either hydroxyurea, I-73, or a combination of both compounds. Hydroxyurea was formulated in PBS (pH 7.4) and I-73 was formulated in 5% Cremophor RH 40/20% hydroxypropyl-β-cyclodextrin (Crem-CD) daily. Mice received either PBS or hydroxyurea each morning and I-73 or Crem-CD each afternoon by oral gavage. After twenty days of daily treatment, the mice were euthanized and their bone marrow (femurs, tibia and critae) were individually collected for subsequent analysis.
Bone marrow cell pellets (total 500K cells) were lysed in 20 μL of RLT (QIAGEN, 79216) with 1×β-mercaptoethanol (Gibco, 21985-023) and H2O followed by hybridizations. Hybridizations were done in a total volume of 15 μL [3 μL of RNA lysate added to master mix of 12 μL probe A/B (purchased from IDT), capture probe/reporter probes (NanoString™, XT TagSet-24, 121000602), proteinase K (Fisher Scientific, E00491) and H2O suspended in hybridization buffer]. Samples were hybridized at 65° C. for 22 hr. Following hybridization, the tripartide complexes were purified, immobilized by nCounter Prep Station and imaged by Digital Analyzer (nCounter MAX/FLEX Analysis System), to generate digital counts of barcodes corresponding to each target in the multiplexed reaction. Labeled barcodes obtained from unamplified extracts were counted at 555 images or field of view (FOV). The barcode counts for each sample were recorded in Reporter Code Count (RCC) files that are imported into nSolver analysis software (provided with CodeSet by NS) for quality control evaluation.
To assess levels of fetal hemoglobin by AlphaLISA, cells (200 k bone marrow cells/well) were lysed by resuspending pellets in 200 μL of lysis buffer plus protease inhibitor cocktail (100×), mixed well and incubating at room temperature for 30 minutes on the plate shaker @300 RPMs. Samples were then diluted 1:10 in a new 96-well round bottom plate by taking 10 uL of lysate and adding 90 μL of AlphaLISA immunoassay buffer. To create the “reaction plate”, 20 μL of Acceptor Beads (50 ug/mL final concentration) was added to each well using a multi-channel pipet. 10 uL of diluted cell lysate was added to the wells and mixed well. 20 μL of AlphaLISA immunoassay buffer was added to each well. Biotinylated antibody (final concentration) was then added to each well. The reaction plate on then placed on a plate shaker at 300 rpm for one hour to incubate at room temperature. After the first incubation was complete, 50 μL of Donor Beads ([…] final concentration) was added to each well and mixed well, keeping the plate in the dark. The covered plate was placed on a shaker at 350 rpm for 30 minutes to incubate at room temperature. After incubation, all 100 uL in each to an AlphaPlate in the dark. Plates were read on a VictorNIVO using the “Alpha 96 Well” setting. Alpha reading was programmed as the default setting with emission at 700 ms and 575/110n. […]

[2] = tested on: fetal hemoglobin gene expression (HBG1) in human erythroid progenitor cells; test: Humanized mouse model: fetal hemoglobin mRNA (HBG1, HBB) in bone marrow by Nanostring; assay type: in vivo, NBSGW mice reconstituted with human CD34+ cells; settings: humanized mouse model, human erythroid progenitor cells, dose not given at this place
Source text: (§1) Results: To evaluate induction of target cell activity in the bone marrow, a humanized mouse model was developed. This model entails the reconstitution of human hematopoietic progenitor cells within the bone marrow of immunodeficient nonirradiated NOD.Cg-KitW-41J Tyr^+ Prkdc^scid Il2rg^tmlwjl/ThomJ (NBSGW) strain recipient mice. These mice are competent to engraft and differentiate human erythroid progenitor cells that express human adult hemoglobin mRNA and protein subunits within bone marrow.
(§2) Based on these exposure results, humanized mice were treated with either the clinical standard of care compound, hydroxyurea (50 mg/kg; bid), or I-73, at 25 and 100 mg/kg (bid), by oral gavage over a three-week period. At the end of the treatment period, bone marrow was harvested for flow cytometry, as well as for assessment of HbF protein and fetal hemoglobin (HBG1) mRNA levels. Levels of both HbF protein and HBG1 mRNA were normalized to the percentage of human erythroid progenitor cells in the bone marrow of each mouse as determined by immunofluorescence staining for human Glycophorin A cell membrane expression. […] In addition, relative levels of fetal hemoglobin to those of potentially sickling-prone adult hemoglobin (HBB) was assessed.
(§3) Female, 6-week-old NOD.Cg-Kit^W-41J Tyr^+ Prkdc^scid Il2rg^tm1Wjl/ThomJ (NBSGW) mice (Jackson Laboratory strain #[…]) were used for these studies. The mice were acclimatized to laboratory conditions for 5 days prior to inoculation.
(§4) GCSF-mobilized human CD34+ cells were removed from liquid nitrogen storage, thawed in a 37° C. water bath and transferred quickly into a 50 mL conical tube. Cryovial was rinsed once with thaw buffer, 0.1% BSA in phosphate buffered saline (PBS), and buffer was transferred and combined with the original contents in the 50 mL conical tube. Next, doubling volumes of thaw buffer was added to the conical and gently swirled for ˜30 seconds to one minute until the volume in the conical was 32 mL. Cells and buffer were centrifuged at 300G for 8 minutes, and the supernatants were aspirated. Cells were counted by resuspending in 1 mL of thawing buffer per million of cells to a target concentration range of 0.5 to 2M/ml and counting with AOPI (1:1) on a luna cell counter to confirm the concentration of cells/mL. The cell concentration was adjusted to 3×10^6 cells/ml. For each mouse, 300 thousand cells in 0.1 ml were injected into the tail vein with a 25-gauge needle.
(§5) On day 56 after human cell adoptive transfer, whole blood was collected from each mouse by submandibular bleed and a 100 μL sample of EDTA whole blood was transferred to a 2 ml tube containing 1.8 mL ACK Lysing Buffer at room temperature (RT), and then inverted to mix. Samples were incubated at RT for 15 min in the dark to lyse. After lysis, samples are centrifuged at 500×g for 5 minutes at RT to enable supernatant decanting. Remaining cells were washed with 1 mL of PBS-0.5% BSA and centrifuged at 500×g for 5 minutes at 4° C. Supernatant was decanted and cells were stained with leukocyte markers (human and mouse CD45 antibodies; BD347464, BD557659) to confirm human cell engraftment. Mice having less than one percent, or greater than ten percent, human CD45 positive cells were excluded from the subsequent study. Remaining mice were then randomized into treatment groups based on percentage of human cell engraftment. Each treatment group included 10-11 mice.
(§6) Compound I-73 was dissolved in a 5% Cremophor RH40, 20% hydroxylpropyl-β-cyclodextrin solution. Hydroxyurea was solubilized in PBS. Formulations were prepared fresh daily. Commencing on day 84 post human cell engraftment, mice were treated by oral gavage with either I-73, hydroxyurea or their respective vehicles, for a period of three weeks using either once daily (QD) or twice daily (BID) dosing regimens. Mice were monitored daily for body weight and condition. […]

[3] = tested on: fetal hemoglobin protein (HbF) in human erythroid progenitor cells; test: Humanized mouse model: HbF protein in bone marrow by AlphaLISA; assay type: in vivo, NBSGW mice reconstituted with human CD34+ cells; settings: humanized mouse model, human erythroid progenitor cells, dose not given at this place
Source text: as §1, §2, §3, §4, §5, §6

NC(=O)NO [hydroxyurea]
average increase of HbF % over vehicle ([1]; HU 75 mg/kg alone, WLS ANOVA estimate): 0.59 | percentage of bone marrow cells expressing the erythroid cell marker glycophorin A ([1]; alone or in combination with I-73): dose-dependent increase | percentage of HbF protein by HPLC in GlyA-positive bone marrow cells ([1]; compared with vehicle treatment group, FIG. 7): significant increase | percentage of bone marrow cells expressing human CD45 ([1]; in vivo): did not alter | HbF level on a per erythroid progenitor (GlyA-positive) cell basis by AlphaLISA ([1]; treatment alone): less HbF induction | induction of fetal hemoglobin mRNA (HBG1) [2]: demonstrated to induce | induction of fetal hemoglobin mRNA (HBG1) ([2]; listed as Hydroxyurea): significantly induces | induction of fetal hemoglobin protein (HbF) [3]: demonstrated to induce | induction of fetal hemoglobin protein (HbF) ([3]; listed as Hydroxyurea): significantly induces
